Biological target: T1, Human GnRH receptor (Homo sapiens, UniProt P30968)
T1 construct: expressed in transfected cells; host or cells: CHO (Chinese hamster ovary) cells, membrane fraction
T1 sequence (P30968 1-328): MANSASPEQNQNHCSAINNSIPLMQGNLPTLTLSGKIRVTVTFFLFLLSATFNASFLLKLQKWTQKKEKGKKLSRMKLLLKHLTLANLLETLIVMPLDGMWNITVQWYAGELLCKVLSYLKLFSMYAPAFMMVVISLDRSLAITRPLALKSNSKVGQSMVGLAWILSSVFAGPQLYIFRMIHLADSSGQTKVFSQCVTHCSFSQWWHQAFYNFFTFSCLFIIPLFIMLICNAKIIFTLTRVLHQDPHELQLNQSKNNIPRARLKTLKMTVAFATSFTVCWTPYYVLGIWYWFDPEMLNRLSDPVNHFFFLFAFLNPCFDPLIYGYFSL
Experiment: Human GnRH receptor binding inhibition assay (125I-leuprolerin, membrane fraction of CHO cells expressing human GnRH receptors)
Conditions: CHO cell membrane fraction with human GnRH receptors, 25° C., 60 minutes, concentration series, Hill plot, read-out: Binding inhibitory activity (IC50)
Method: Human GnRH receptor binding inhibition assay
(A) Preparation of ^125 I-leuprolerin
Ten (10) μl of 3×10^-4 M aqueous leuprolerin solution and 10 μl of 0.01 mg/ml lactoperoxidase solution were taken in a tube, and 10 μl of Na^125 I solution (37 MBq) was added. After stirring, 10 μl of 0.001% H2 O2 was added and the reaction was conducted at room temperature for 20 minutes. The reaction was stopped by adding 700 μl of 0.05% TFA solution, and the reaction mixture was purified by reversed HPLC. The HPLC parameters are shown below. The retention time of ^125 I-leuprolerin was 26-27 minutes.
Column: TSKgel ODS-80™ CTR (4.6 mm×10 cm)
Eluent: Solvent A (0.05%TFA) Solvent B (40%CH3 CN-0.05%TFA)
Min. 0 (100% Solvent A)--Min. 3 (100% Solvent A)--Min. 7 (50% Solvent A+50% Solvent B)--Min. 40 (100% Solvent B) Elution temperature: room temperature Elution flow rate: 1 ml/min.
CHO cells (10^9 cells) with human GnRH receptors expressed were floated on phosphate-buffered saline containing EDTA (PBS-EDTA) and centrifuged at 100×g for 5 minutes. To the pellet obtained was added 10 ml of a cell homogenate buffer (10 mM NaHCO3, 5 mM EDTA, pH 7.5) and the mixture was homogenized using a Polytron homogenizer. The homogenate was centrifuged at 400×g for 15 minutes and the supernatant was taken in an ultracentrifuge tube and recentrifuged at 100,000×g for 1 hour. The membrane fraction thus obtained as a pellet was suspended in 2 ml of assay buffer and centrifuged at 100,000×g for 1 hour. The membrane fraction recovered was resuspended in 20 ml of assay buffer and the suspension was portioned, stored at -80° C., and thawed when needed.
(C) Determination of the ^125 I-leuprolerin binding inhibition rate
The membrane fraction prepared in Step (B) was diluted with assay buffer to 200 μg/ml and the dilution was portioned into tubes, 188 μl per tube. Then, 2 μl of 2 mM solution of the test compound in 60% DMSO and 10 μl of 38 nM ^125 I-leuprolerin solution in the same solvent were simultaneously added to the tubes. To determine the maximum binding, a test mixture of 2 μl of 60% DMSO and 10 μl of 38 nM ^125 I-leuprolerin solution in the same solvent was prepared. For the determination of nonspecific binding, a test mixture of 2 μl of 100 μM leuprolerin solution in 60% DMSO and 10 μl of 38 nM solution of ^125 I-leuprolerin in the same solvent was also prepared. The mixtures were respectively allowed to react at 25° C. for 60 minutes and the reaction product in each tube was filtered through a poly(ethylene imine)-treated Whatman glass filter (GF-F) under suction. The radioactivity of ^125 I-leuprolerin remaining on the filter was determined using a γ-counter.
Using the measured values, the following equation was calculated to find the binding inhibition rate for each test compound.
Binding inhibition (%)=(TB-SB)/(TB-NSB)×100
[SB: radioactivity with the compound added
TB: maximum bound radioactivity
NBS: nonspecifically bound radioactivity]
Using a concentration series of each test compound, the concentration of the compound which inhibited the binding by 50% (IC50) was calculated by Hill plot.

Question: `O=C(Nc1ccc(CN2C(=O)[C@H]3CCC[C@H]3N(C(=O)CN3C(=O)c4ccccc4C3=O)c3ccccc32)cc1)OCc1ccccc1` (relative stereo) [Example 1, (3aR*,10aS*)-9-[4-(Benzyloxycarbonylamino)benzyl]-4-(phthalimidoacetyl)-2,3,3a,4,9,10a-hexahydrobenzo[b]cyclopenta[e][1,4]diazepin-10(1H)-one] was tested. Which IC50 did it give?
Answer: 100 nM

Question: With `O=C(Nc1ccc(CN2C(=O)[C@H]3CCC[C@H]3N(C(=O)CN3C(=O)C4=C(CCCC4)C3=O)c3ccccc32)cc1)OCc1ccccc1` (relative stereo) [Example 2, (3aR*,10aS*)-9-[4-(Benzyloxycarbonylamino)benzyl]-4-(2H-1,3-dioxo-1,3,4,5,6,7-hexahydroisoindole-2-acetyl)-2,3,3a,4,9,10a-hexahydrobenzo[b]cyclopenta[e][1,4]diazepin-10(1H)-one] as the compound, how does the IC50 read?
Answer: 70 nM

Question: With `CCC(=O)Nc1ccc(CN2C(=O)[C@H]3CCC[C@H]3N(C(=O)CN3C(=O)c4ccccc4C3=O)c3ccccc32)cc1` (relative stereo) [Example 6, (3aR*,10aS*)-4-(Phthalimidoacetyl)-9-(4-propionamidobenzyl)-2,3,3a,4,9,10a-hexahydrobenzo[b]cyclopenta[e][1,4]diazepin-10(1H)-one] as the compound, how does the IC50 read?
Answer: 800 nM

Question: `O=C(Nc1ccc(CN2C(=O)[C@H]3CCC[C@H]3N(C(=O)CN3C(=O)c4ccccc4C3=O)c3ccccc32)cc1)c1ccccc1` (relative stereo) [Example 7, (3aR*,10aS*)-9-(4-Benzamidobenzyl)-4-(phthalimidoacetyl)-2,3,3a,4,9,10a-hexahydrobenzo[b]cyclopenta[e]-[1,4]diazepin-10(1H)-one] was tested. Which IC50 did it give?
Answer: 200 nM

Question: With `O=C(Nc1ccc(CN2C(=O)[C@H]3CCC[C@H]3N(C(=O)CN3C(=O)c4ccccc4C3=O)c3ccccc32)cc1)c1ccccc1F` (relative stereo) [Example 8, (3aR*,10aS*)-9-[4-(2-Fluorobenzamido)benzyl]-4-(phthalimidoacetyl)-2,3,3a,4,9,10a-hexahydrobenzo[b]cyclopenta[e][1,4]diazepin-10(1H)-one] as the compound, how does the IC50 read?
Answer: 300 nM

Question: For `O=C(Nc1ccc(CN2C(=O)[C@H]3CCC[C@H]3N(C(=O)CN3C(=O)c4ccccc4C3=O)c3ccccc32)cc1)c1cccc(F)c1` (relative stereo) [Example 9, (3aR*,10aS*)-9-[4-(3-Fluorobenzamido)benzyl]-4-(phthalimidoacetyl)-2,3,3a,4,9,10a-hexahydrobenzo[b]cyclopenta[e][1,4]diazepin-10(1H)-one], which IC50 is on record?
Answer: 200 nM

Question: Which IC50 does the source give for `O=C(Nc1ccc(CN2C(=O)[C@H]3CCC[C@H]3N(C(=O)CN3C(=O)c4ccccc4C3=O)c3ccccc32)cc1)c1ccc(F)cc1` (relative stereo) [Example 10, (3aR*,10aS*)-9-[4-(4-Fluorobenzamido)benzyl]-4-(phthalimidoacetyl)-2,3,3a,4,9,10a-hexahydrobenzo[b]cyclopenta[e][1,4]diazepin-10(1H)-one] here?
Answer: 200 nM

Question: How did the IC50 turn out when `O=C(Nc1ccc(CN2C(=O)[C@H]3CCC[C@H]3N(C(=O)CN3C(=O)c4ccccc4C3=O)c3ccccc32)cc1)c1ccc(Cl)cc1` (relative stereo) [Example 11, (3aR*,10aS*)-9-[4-(4-Chlorobenzamido)benzyl]-4-(phthalimidoacetyl)-2,3,3a,4,9,10a-hexahydrobenzo[b]cyclopenta[e][1,4]diazepin-10(1H)-one] was run?
Answer: 200 nM

Question: Which IC50 does the source give for `O=C(Nc1ccc(CN2C(=O)[C@H]3CCC[C@H]3N(C(=O)CN3C(=O)c4ccccc4C3=O)c3ccccc32)cc1)c1ccc(Br)cc1` (relative stereo) [Example 12, (3aR*,10aS*)-9-[4-(4-Bromobenzamido)benzyl]-4-(phthalimidoacetyl)-2,3,3a,4,9,10a-hexahydrobenzo[b]cyclopenta[e][1,4]diazepin-10(1H)-one] here?
Answer: 300 nM

Question: `COc1cccc(C(=O)Nc2ccc(CN3C(=O)[C@H]4CCC[C@H]4N(C(=O)CN4C(=O)c5ccccc5C4=O)c4ccccc43)cc2)c1` (relative stereo) [Example 14, (3aR*,10aS*)-9-[4-(3-Methoxybenzamido)benzyl]-4-(phthalimidoacetyl)-2,3,3a,4,9,10a-hexahydrobenzo[b]cyclopenta[e][1,4]diazepin-10(1H)-one] was tested. Which IC50 did it give?
Answer: 200 nM
